Series [1] relates to human spermatozoa. Put plainly: Protein tyrosine phosphorylation (sperm capacitation hallmark) by anti-phosphotyrosine western blot. In kind it is cell-based. As for the experimental part:
For sperm incubations Biggers-Whitten-Whittingham (BWW) media described by Biggers J D et al. (1971) with slightly modifications was used. BBW-washed (BWW-W): 94.5 mM NaCl, 4.8 mM KCl, 1.7 mM CaCl2×2H2O, 1.17 mM KH2PO4, 1.22 mM MgSO4×7H2O, 20 mM HEPES. Non capacitation media (NC) contains all the component of BWW-washed plus 5.56 mM glucose and gentamycin 10 mg/mL. Capacitating media (CAP): contains all the component of NC plus 25 mM of HCO3 and 26 mg of Bovine Serum Albumin (BSA). All the media were balanced to a final pH 7.2-7.4
(§1) For sperm preparation, semen samples were collected by masturbation into sterile cups after 2-4 days of sexual abstinence. Samples were left to liquefy for up 2 hours at 37° C. to complete liquefaction prior to processing as described below. Only ejaculates whose semen parameters (total fluid volume, sperm concentration, motility and morphology) meet the (2010) normality criteria established by the WHO (2010) were processed. Ejaculates were submitted to discontinuous gradient centrifugation (Sperm Wash Gradient Set (45% and 90%)) for 20 min at 300 g at room temperature. […] The pellet was then resuspended in 1 mL of non-capacitating (NC) media and sperm concentration was determined using a Neubauer counting chamber under an optical microscope (×100 magnification). Due to the low number of spermatozoa obtained in each ejaculate, different ejaculates were pooled for different assessments. Finally, depending on experimental design spermatozoa were diluted in 1 ml of capacitating (CAP media containing 26 mg/mL of BSA and 25 mM of bicarbonate) or NC at a final concentration of 20×10^6/ml for 6 hours at 37° C. in presence or absence of the activator. YK-3-237 was added at the referred concentration at time 0 of incubation and keep along the time of sperm incubation.
For the Western blot analysis, spermatozoa were washed twice in phosphate-buffered saline (PBS) by centrifugation at 5000 g for 3 min at room temperature. The pellet was resuspended in 2×Laemmli sample buffer and incubated over night at 4° C. The samples were then centrifuged again (10000 g, 15 min, 4° C.) and the protein concentration was measured using a Bio-Rad DC Protein Assay. […] The phosphorylation state of the sperm proteins was analysed by overnight incubation at 4° C. with an anti-phosphotyrosine monoclonal antibody (mAb; Clone 4G10, Millipore; diluted 1:3000, v/v, in Tris-buffered saline-Tween 20 solution (TBST) containing 3% milk). The levels of sperm lipid peroxidation was evaluated by overnight incubation at 4° C. with an anti-4-hydroxynonenal (4HNE) antibody (pAb; Millipore; diluted 1:3000, v/v, in Tris-buffered saline-Tween 20 solution (TBST) containing 3% BSA. Membranes incubated with anti-phosphotyrosine were incubated for 60 min at room temperature with a horseradish peroxidase (HRP)-conjugated secondary anti-mouse antibody (diluted 1:5000, v/v, in TBST containing or 3% milk). Membranes incubated with anti-4HNE were incubated for 60 min at room temperature with a horseradish peroxidase (HRP)-conjugated secondary anti-goat antibody (diluted 1:5000, v/v, in TBST containing or 3% BSA). […]
Membranes' fluorescence was read with the BioRad FX-Pro-plus (Bio-Rad, Hemel Hempstead, UK). […] Western blotting regions of interest (ROIs) used for quantification are indicated by a vertical bar on the right of the respective western blot. […]

Series [2] concerns human spermatozoa. In words: Sperm viability by eosin-nigrosin staining. In kind it is cell-based. The settings on record: 6 hours, capacitating conditions. As for the experimental part: as §1, with “YK-3-237 was added at the referred concentration at time 0 of incubation and keep along the time of sperm incubation.” left out
For determination of sperm viability, the instructions by the WHO (2010) were followed, sperm viability was assessed by eosin-nigrosin staining technique. […] A total of 200 spermatozoa were counted in random fields under a bright-field microscope. […]

For another series, the system named is breast cancer cells. The settings on record: Yi et al., 2013; cited from earlier work.
The subject of a further series is renal fibroblast. The settings on record: Ponnusamy et al., 2015; cited from earlier work.

For `COc1ccc(/C=C/C(=O)c2cc(OC)c(OC)c(OC)c2)cc1B(O)O` [YK-3-237, B-[2-methoxy-5-[(1E)-3-oxo-3-(3,4,5-trimethoxyphenyl)-1-propen-1-yl]phenyl]-boronic acid], the “tyrosine phosphorylation levels, co-incubation in presence of bicarbonate” value in the series on human spermatozoa [1] (10 μM, 6 hours, bicarbonate present) is “increases the tyrosine phosphorylation levels”. The “tyrosine phosphorylation levels, complete capacitating media containing bicarbonate and BSA” value with human spermatozoa [1] (10 μM, 6 hours, compared with bicarbonate alone) was “further improved”. Moreover, the “tyrosine phosphorylation levels in comparison with control” value in the series on human spermatozoa [1] (6 hours co-incubation, capacitating media (HCO3 25 mM, BSA 26 mg/mL), 37° C., vs control 6 hours) was “tripled”. In the series with human spermatozoa [1] (6 hours incubation in capacitating conditions (bicarbonate and BSA)), the “best concentration which enhanced tyrosine phosphorylation levels” value stood at 10 µM. Moreover, in the series with human spermatozoa [1] (human sperm, capacitating conditions, FIGS. 1A, 2A and 3A), the “increase of tyrosine phosphorylation levels” value was “up to 3 folds”. The “effect on sperm viability” value in the series on human spermatozoa [2] (10 μM) is on record as “did not affect sperm viability”. Besides, in the series with human spermatozoa [2] (37° C., different concentrations), the “effect on sperm viability, all concentrations tested” value is “none of the concentration tested had detrimental effect”. In the series on breast cancer cells, the “effect on breast cancer cells” value is given as “antiproliferative effect”. The “effect on renal fibroblast and renal fibrogenesis” value with renal fibroblast is “promotes renal fibroblast activation and aggravates renal fibrogenesis”.

The values are drawn from patent US20230390314A1, “METABOLIC ACTIVATORS FOR ENHANCING SPERM CAPACITATION IN MAMMALS” (UNIVERSIDADE DO PORTO, priority 2020, published 2023).
